Results: patent US7317034B2, “Substituted C-furan-2-yl-methylamine and C-thiophen-2-yl-methylamine compounds” (Gruenenthal GmbH, priority 2001, dated 2008)

System: binding site 2 of the sodium channel (BTX binding site)
Experiment: Binding to the sodium channel, binding site 2 (BTX binding), [3H]-batrachotoxinin A20 α-benzoate displacement
Conditions: rat cerebrocortex synaptosomes; for BTX binding (10 μM): 10 μM test compound, ligand [3H]-batrachotoxinin A20 α-benzoate 10 nM, 120 min at 25° C.

Row | Compound | BTX binding (10 μM) [%] | Kd (radioligand [3H]-batrachotoxinin A20 α-benzoate, N=2, mean±SEM, read-out: KD value for that binding site) [nM]
1 | COC(=O)c1cc(C(Nc2ccc(Cl)cc2F)C(=O)c2ccccc2)oc1C (centres unmarked) [C, 5-[1-(4-Chloro-2-fluoro-phenylamino)-2-oxo-2-phenyl-ethyl]-2-methyl-furan-3-carboxylic acid methyl ester] | 57 | –
2 | [3H]-batrachotoxinin A20 α-benzoate [reference compound] | – | 24.6 ± 1.56
3 | COC(=O)c1cc(C(Nc2ccc(Cl)cc2C)C(=O)c2ccccc2)oc1C (centres unmarked) [Example B, 5-[1-(4-Chloro-2-methyl-phenylamino)-2-oxo-2-phenyl-ethyl]-2-methyl-furan-3-carboxylic acid methyl ester] | 55 | –
4 | CCOC(=O)c1cc(C(Nc2ccc(Cl)cc2C)C(=O)c2ccccc2)oc1C (centres unmarked) [D, 5-[1-(4-Chloro-2-methyl-phenylamino)-2-oxo-2-phenyl-ethyl]-2-methyl-furan-3-carboxylic acid ethyl ester] | 37 | –
5 | 5-[1-(2-Chloro-phenylamino)-2-oxo-2-phenyl-ethyl]-2-methyl-furan-3-carboxylic acid ethyl ester | 40 | –
